In patent US4336400A, “3-(Hydroxy or hydroxymethyl)-4-hydroxy-alpha(aminomethyl)benzyl alcohols and methods of use” (Sterling Drug Inc., priority 1978, dated 1982):
“And” between values parts separate entries of the source, which are not always exact repeats. Identical values can stand only once. Counter-ions that a name gives are not always drawn.

Assays:
[1] = system: guinea pig bronchioles constricted by carbachol; assay: Bronchodilator Test Method II: in vitro, perfused guinea pig lung, bronchioles constricted by carbachol; details: for Bronchodilator Action, Duration (min) Mean: dose mcg(base) given
Method: Bronchodilator activity was tested in anesthetized dogs (Test Method I) and in vitro on the perfused guinea pig lung (Test Method II), using the following pharmacological test procedures:
In this method bronchodilator activity in vitro was determined by testing the effect of graded doses of the test compounds on guinea pig bronchioles constricted by carbachol, using the technique reported by Sollman and von Oettingen, Proc. Soc. Exp. Biol. Med., 25, 692 (1928) as modified by Tainter, Pedden, and James, J. Pharm. Exp. Ther., 51, 371 (1934) and by Luduena, von Euler, Tuller, and Lands, Arch. Intern. Pharmacol., III, 392 (1957).

diastolic blood pressure = assay: Effect on diastolic blood pressure in the anesthetized dog, intravenous; assay type: in vivo; details: i.v., dose (salt) mcg/kg
Method: Injections were repeated at 20-30 minutes.
Cardiovascular Studies The effect of a rapid intravenous injection on the heart rate was conducted in anesthetized dogs under normal respiration. A few open-chest dogs were also tested. Increase in heart rate was measured by using an electrocardiograph attached to the dog. Readings were taken every 0.5-1 minutes for the first 10 minutes and every 2-5 minutes thereafter until recovery. In some cases, several doses and more than one compound were tested alternately in the same dog. The blood pressure effect was simultaneously recorded.

[2] = Solubility, pH of solution and precipitation; assay type: physicochemical; details: for precipitation on dilution of a 1 percent dimethyl sulfoxide solution with three volumes of water: 1 percent solution in dimethyl sulfoxide; for precipitation on dilution of a 1 percent glycerol formal solution with three volumes of water: 1 percent solution in glycerol formal; for precipitation when the pH was adjusted to 7.0 with N/10 sodium hydroxide: 1 percent aqueous solution, pH 7.0
normal airway pressure = assay: Control bronchoconstriction in anesthetized dog; assay type: in vivo; details: i.v., carbachol 4 to 6 micrograms per kilogram, histamine diphosphate 35 to 45 micrograms per kilogram, majority of test animals
Method: Test Method I: Male and female dogs weighing 9-18 kg. each were anesthetized with pentobarbital sodium (30 mg./kg. i.v.). Each animal, with thorax opened at the mid-sternum, was maintained under artificial ventilation using a constant volume pump (250 ml./stroke; ten to twelve strokes per minute) attached to the tracheal cannula. The flow of air was controlled by a glass or plastic valve which closed and opened respectively on inflow and outflow of the air to and from the tracheal cannula. Bronchoconstriction and/or bronchodilatation were measured from changes in the basal airway pressure reflected by a transducer attached to the sidearm of the cannula relayed to a polygraph.
Control bronchoconstrictions were induced by intravenous injections of carbachol (choline chloride carbamate) in doses ranging from 4 to 6 micrograms per kilogram or histamine diphosphate in doses ranging from 35 to 45 micrograms per kilogram.

| Compound | ED50 ([1]; Doryl conc. 1:5 million) | Bronchodilator Action, Duration (min) Mean ([1]; Doryl conc. 1:5 million) [min] | also measured |
| --- | --- | --- | --- |
| CC(C)(C)NCC(O)c1ccc(OC(=O)C(C)(C)C)c(OC(=O)C(C)(C)C)c1.Cl (stereo not drawn) [Example 5, 3,4-bis(pivalyloxy)-alpha-(tert-butylaminomethyl)-benzyl alcohol hydrochloride] | 0.94 mcg(base) | 18 ± 4.2 |  |
| CCC(C)CC(=O)Oc1ccc(C(O)CNC(C)(C)C)cc1OC(=O)CC(C)CC.Cl (stereo not drawn) [Example 6, 3,4-bis(3-methylpentanoyloxy)-alpha-(tert-butylaminomethyl)benzyl alcohol hydrochloride] | 1.3 mcg(base) | 43 ± 3.7 |  |
| Cc1ccc(C(=O)Oc2ccc(C(O)CNC(C)(C)C)cc2OC(=O)c2ccc(C)cc2)cc1 (stereo not drawn) [Example 30, 3,4-bis(p-toluyloxy)-alpha-(tert-butylaminomethyl)-benzyl alcohol methanesulfonate] |  |  | Mean Decrease in Diastolic Blood Pressure in % (diastolic blood pressure): 2% and 11% and 11.5% |
| COc1ccc(C(=O)Oc2ccc(C(O)CNC(C)(C)C)cc2OC(=O)c2ccc(OC)cc2)cc1.Cl (stereo not drawn) [Example 33, 3,4-bis(p-anisoyloxy)-alpha-(tert-butylaminomethyl)-benzyl alcohol hydrochloride] | 6.9 mcg(base) | 32 ± 5 | precipitation on dilution of a 1 percent dimethyl sulfoxide solution with three volumes of water [2]: no precipitate formed; precipitation on dilution of a 1 percent glycerol formal solution with three volumes of water [2]: no precipitate formed |
| COc1ccc(C(=O)Oc2ccc(C(O)CNC(C)(C)C)cc2OC(=O)c2ccccc2)cc1.Cl (stereo not drawn) [Example 143, 3-benzoyloxy-4-(p-anisoyloxy)-alpha-(tert-butylaminomethyl)benzyl alcohol hydrochloride] |  |  | ED50 ([1]; Doryl conc. 1:10 million): 1.53 mcg(base); Bronchodilator Action, Duration (min) Mean ([1]; Doryl conc. 1:10 million): 29.2 ± 10.2 min |
| C[N+](C)(C)CCOC(N)=O [carbachol, choline chloride carbamate] |  |  | increase in the normal airway pressure or amplitude (normal airway pressure): 100-200% |
| CC(C)CC(=O)Oc1ccc(C(O)CNC(C)(C)C)cc1OC(=O)CC(C)C.Cl (stereo not drawn) [Example 3, 3,4-bis(isovaleryloxy)-alpha-(tert-butylaminomethyl)benzyl alcohol hydrochloride] | 0.6 mcg(base) | 18 ± 4 | precipitation when the pH was adjusted to 7.0 with N/10 sodium hydroxide [2]: a precipitate formed |
| CC(C)(C)NCC(O)c1ccc(O)c(O)c1 (stereo not drawn) [Ref. Cpd. I, 3,4-Dihydroxy-alpha-(tert-butylaminomethyl)benzyl alcohol, reference compound] | 0.18 mcg(base) | 5 ± 1.4 |  |
| NCCc1c[nH]cn1 [histamine diphosphate] |  |  | increase in the normal airway pressure or amplitude (normal airway pressure): 100-200% |
| COc1ccc(C(=O)Oc2ccc(C(O)CNC(C)(C)C)cc2COC(C)=O)cc1 (stereo not drawn) [Example 151, 3-(acetoxymethyl)-4-(p-anisoyloxy)-alpha-(tert-butylaminomethyl)benzyl alcohol methanesulfonate] |  |  | Mean Decrease in Diastolic Blood Pressure in % (diastolic blood pressure): 10% |
| CC(C)(C)NCC(O)c1ccc(OC(=O)c2ccccc2)c(OC(=O)c2ccccc2)c1.Cl (stereo not drawn) [Example 29, 3,4-bis(benzoyloxy)-alpha-(tert-butylaminomethyl)-benzyl alcohol hydrochloride] | 1.1 mcg(base) | 34 ± 6.4 | precipitation on dilution of a 1 percent dimethyl sulfoxide solution with three volumes of water [2]: no precipitate formed; precipitation on dilution of a 1 percent glycerol formal solution with three volumes of water [2]: no precipitate formed |
| CC(C)CC(=O)Oc1cc(C(O)CNC(C)(C)C)ccc1OC(=O)C(C)(C)C.Cl (stereo not drawn) [Example 71, 3-(isovaleryloxy)-4-(pivalyloxy)-alpha-(tert-butylaminomethyl)benzyl alcohol hydrochloride] | 0.63 mcg(base) | 26 |  |
| CC(C)(C)NCC(O)c1ccc(OC(=O)C2(C)CC2)c(OC(=O)C2(C)CC2)c1.Cl (stereo not drawn) [Example 13, 3,4-bis(1-methylcyclopropanecarbonyloxy)-alpha-(tert-butylaminomethyl)benzyl alcohol hydrochloride] | 0.45 mcg(base) | 15 ± 1.7 |  |
| CCC(NC(C)(C)C)C(O)c1ccc(OC(=O)c2ccc(C)cc2)c(OC(=O)c2ccc(C)cc2)c1 (stereo not drawn) [Example 144, 3,4-bis(p-toluyloxy)-alpha-[1-(tert-butylamino)-propyl]benzyl alcohol hydrochloride] |  | 83 ± 26.8 |  |
| CC(C)(C)CC(=O)Oc1ccc(C(O)CNC(C)(C)C)cc1OC(=O)CC(C)(C)C.Cl (stereo not drawn) [Example 7, 3,4-bis(3,3-dimethylbutanoyloxy)-alpha-(tert-butylaminomethyl)benzyl alcohol hydrochloride] | 23 mcg(base) | 85 ± 17 |  |
| CC(C)NCC(O)c1ccc(O)c(O)c1 (stereo not drawn) [Ref. Cpd. II, 3,4-Dihydroxy-alpha-(isopropylaminomethyl)benzyl alcohol, reference compound] |  | 5 |  |
| CC(C)C(=O)Oc1ccc(C(O)CNC(C)(C)C)cc1OC(=O)C(C)C.Cl (stereo not drawn) [Example 2, 3,4-bis(isobutyryloxy)-alpha-(tert-butylaminomethyl)-benzyl alcohol hydrochloride] | 0.28 mcg(base) | 9 ± 1.1 |  |
| CC(C)(C)NCC(O)c1ccc(OC(=O)C2CCCCC2)c(OC(=O)C2CCCCC2)c1.Cl (stereo not drawn) [Example 15, 3,4-bis(cyclohexanecarbonyloxy)-alpha-(tert-butylaminomethyl)benzyl alcohol hydrochloride] | 1.3 mcg(base) | 53 ± 7 | precipitation on dilution of a 1 percent dimethyl sulfoxide solution with three volumes of water [2]: no precipitate formed |
| CCC(C)C(=O)Oc1ccc(C(O)CNC(C)(C)C)cc1OC(=O)C(C)CC.Cl (stereo not drawn) [Example 4, 3,4-bis(2-methylbutanoyloxy)-alpha-(tert-butylaminomethyl)benzyl alcohol hydrochloride] | 0.45 mcg(base) | 20 ± 3 |  |
| CCC(NC1CCCC1)C(O)c1ccc(OC(=O)CC(C)C)c(OC(=O)CC(C)C)c1.Cl (stereo not drawn) [Example 138, 3,4-bis(isovaleryloxy)-alpha-[1-(cyclopentylamino)propyl]benzyl alcohol hydrochloride] | 0.46 mcg(base) | 25.4 ± 3.5 |  |
| CCCC(=O)Oc1ccc(C(O)CNC(C)(C)C)cc1OC(=O)CCC.Cl (stereo not drawn) [Example 1, 3,4-bis(butyryloxy)-alpha-(tert-butylaminomethyl)-benzyl alcohol hydrochloride] | 0.23 mcg(base) | 9 ± 1.0 | precipitation when the pH was adjusted to 7.0 with N/10 sodium hydroxide [2]: a precipitate formed |
